In ChEMBL document CHEMBL1201862, “PubChem BioAssay data set” (2004):
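Growth conditions: 96-well plates. Treatment: test compound, 48 hours, 5 concentrations. Analysis: linear interpolation between bracketing concentrations; unreached endpoints set to highest concentration. At the GI50, growth is halved.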 Activity calls are given as the source filed them. No stated cut-off is given here; in the data, active = GI50 up to about 1.1 µM and inactive = higher.

Tests used:
Assay in all cases: NCI-60 cell line screen, 48 h
[1] = tested on: LXFL 529
[2] = tested on: SN12C
[3] = tested on: M14
[4] = tested on: HOP-92
[5] = tested on: SK-MEL-2
[6] = tested on: IGROV-1
[7] = tested on: SF-539
[8] = tested on: HCT-15
[9] = tested on: KM12
[10] = tested on: ACHN
[11] = tested on: LOX IMVI
[12] = tested on: UACC-257
[13] = tested on: SK-MEL-28
[14] = tested on: NCI-H23
[15] = tested on: SF-268
[16] = tested on: Malme-3M
[17] = tested on: HT-29
[18] = tested on: UO-31

| SMILES | GI50 [1] | GI50 [2] | GI50 [3] | GI50 [4] | GI50 [5] | GI50 [6] | GI50 [7] | GI50 [8] [µM] | GI50 [9] | GI50 [10] | GI50 [11] | GI50 [12] | GI50 [13] | GI50 [14] | GI50 [15] | GI50 [16] | GI50 [17] | GI50 [18] |
| --- | --- | --- | --- | --- | --- | --- | --- | --- | --- | --- | --- | --- | --- | --- | --- | --- | --- | --- |
| CCCOc1ccc(/C=C/c2cc(OC)c(OC)c(OC)c2)cc1 | 0.558 µM (active) | 0.635 µM (active) | 0.252 µM (active) | 0.347 µM (active) | 0.822 µM (active) | 0.399 µM (active) | 0.269 µM (active) | 0.348 | 0.305 µM (active) | 0.697 µM (active) | 0.445 µM (active) | 0.348 µM (active) | 8.75 µM (inactive) | 0.23 µM (active) | 0.618 µM (active) | 0.21 µM (active) | 0.272 µM (active) | 0.482 µM (active) |
| c1ccc2c(c1)nnn2CNc1ccc(N2CCCCC2)cc1 | > 100 µM (inactive) | > 100 µM (inactive) | > 100 µM (inactive) | > 100 µM (inactive) | > 100 µM (inactive) | > 100 µM (inactive) | > 100 µM (inactive) | > 100 | > 100 µM (inactive) | > 100 µM (inactive) | > 100 µM (inactive) | > 100 µM (inactive) | > 100 µM (inactive) | > 100 µM (inactive) | > 100 µM (inactive) | > 100 µM (inactive) | > 100 µM (inactive) | > 100 µM (inactive) |
| NCCCC(N/C=C1/N=C(c2ccccc2)OC1=O)C(=O)O (stereo not drawn) | 96.8 µM (inactive) | > 100 µM (inactive) | > 100 µM (inactive) | > 100 µM (inactive) | > 100 µM (inactive) | > 100 µM (inactive) | > 100 µM (inactive) | > 100 |  | > 100 µM (inactive) | > 100 µM (inactive) | > 100 µM (inactive) | > 100 µM (inactive) | > 100 µM (inactive) | > 100 µM (inactive) | > 100 µM (inactive) | > 100 µM (inactive) | > 100 µM (inactive) |
| CCOC(=O)C(=O)Nc1ccc([N+](=O)[O-])cc1C#N | > 100 µM (inactive) | > 100 µM (inactive) | > 100 µM (inactive) | > 100 µM (inactive) | > 100 µM (inactive) | > 100 µM (inactive) | > 100 µM (inactive) | > 100 | > 100 µM (inactive) | > 100 µM (inactive) | > 100 µM (inactive) | > 100 µM (inactive) | > 100 µM (inactive) | > 100 µM (inactive) | > 100 µM (inactive) | > 100 µM (inactive) | > 100 µM (inactive) | > 100 µM (inactive) |
| COC(=O)C1CC(C(=O)OC)c2nc3cc(C)ccc3nc21 (stereo not drawn) | > 100 µM (inactive) | > 100 µM (inactive) | > 100 µM (inactive) | > 100 µM (inactive) | > 100 µM (inactive) | > 100 µM (inactive) | > 100 µM (inactive) | > 100 | > 100 µM (inactive) | > 100 µM (inactive) | > 100 µM (inactive) | 58.3 µM (inactive) | > 100 µM (inactive) | > 100 µM (inactive) | > 100 µM (inactive) | > 100 µM (inactive) | 62.7 µM (inactive) | > 100 µM (inactive) |
| O=C(c1ccco1)N(C(=S)N1CCN(c2ccccc2)CC1)c1ccccc1 | > 100 µM (inactive) | > 100 µM (inactive) | > 100 µM (inactive) | > 100 µM (inactive) | > 100 µM (inactive) | > 100 µM (inactive) | > 100 µM (inactive) | > 100 | > 100 µM (inactive) | > 100 µM (inactive) | > 100 µM (inactive) | > 100 µM (inactive) | > 100 µM (inactive) | > 100 µM (inactive) | > 100 µM (inactive) | > 100 µM (inactive) | > 100 µM (inactive) | 66.8 µM (inactive) |
| COC(=O)C1=Cc2cc(OC)c(OC)cc2[C@H](c2ccc(OC)c(OC)c2)C1C(=O)OC (stereo partly drawn) | > 100 µM (inactive) | > 100 µM (inactive) | > 100 µM (inactive) | 45.8 µM (inactive) |  | > 100 µM (inactive) | 69.8 µM (inactive) | 76 | > 100 µM (inactive) | > 100 µM (inactive) | > 100 µM (inactive) | > 100 µM (inactive) | > 100 µM (inactive) | > 100 µM (inactive) | > 100 µM (inactive) | > 100 µM (inactive) | 75.9 µM (inactive) | > 100 µM (inactive) |
| COc1cc(C2(C)SCCCS2)cc(OC)c1OC | > 100 µM (inactive) | > 100 µM (inactive) | > 100 µM (inactive) | > 100 µM (inactive) | > 100 µM (inactive) | > 100 µM (inactive) | > 100 µM (inactive) | > 100 | > 100 µM (inactive) | > 100 µM (inactive) | > 100 µM (inactive) | > 100 µM (inactive) | > 100 µM (inactive) | > 100 µM (inactive) | > 100 µM (inactive) | > 100 µM (inactive) | > 100 µM (inactive) | > 100 µM (inactive) |
| CC(=O)OCC1OC(n2c(=O)[nH]c(=O)c3nn[nH]c32)C(OC(C)=O)C(OC(C)=O)C1OC(C)=O (stereo not drawn) | > 100 µM (inactive) | > 100 µM (inactive) | > 100 µM (inactive) | > 100 µM (inactive) | > 100 µM (inactive) | > 100 µM (inactive) |  | > 100 |  | > 100 µM (inactive) | > 100 µM (inactive) | > 100 µM (inactive) | > 100 µM (inactive) | > 100 µM (inactive) | > 100 µM (inactive) | > 100 µM (inactive) | > 100 µM (inactive) | > 100 µM (inactive) |
| COc1cc2ccnc3c2c(c1OC)CC1CC(O)C(OC)CC31 (stereo not drawn) | 36.6 µM (inactive) | 41.4 µM (inactive) | 51.8 µM (inactive) | 14.7 µM (inactive) | > 100 µM (inactive) | 66.4 µM (inactive) | 24.4 µM (inactive) | 63.8 | 40.9 µM (inactive) | 44.4 µM (inactive) | 31.7 µM (inactive) | 37.1 µM (inactive) | 22.7 µM (inactive) | 47.5 µM (inactive) |  | > 100 µM (inactive) | 46.5 µM (inactive) | 20.9 µM (inactive) |
| CC1(C)O/C(=C\c2ccccc2)C(=O)/C(=C/c2ccccc2)O1 | 20.4 µM (inactive) | 47.6 µM (inactive) | 34.4 µM (inactive) | 29.9 µM (inactive) | 18.4 µM (inactive) | 51.4 µM (inactive) | 67 µM (inactive) |  | 53.8 µM (inactive) | 33.8 µM (inactive) | 28.6 µM (inactive) | 22.5 µM (inactive) | 50.4 µM (inactive) | 20 µM (inactive) | 57.4 µM (inactive) | 38 µM (inactive) | 29.4 µM (inactive) | 19.1 µM (inactive) |
| CNC(=O)NCNC(=O)NC | > 100 µM (inactive) |  | > 100 µM (inactive) | > 100 µM (inactive) | > 100 µM (inactive) | > 100 µM (inactive) | > 100 µM (inactive) | > 100 | > 100 µM (inactive) |  | > 100 µM (inactive) | > 100 µM (inactive) | > 100 µM (inactive) | > 100 µM (inactive) |  | > 100 µM (inactive) | > 100 µM (inactive) |  |
| O=C(O)C12C3CCC(C3)C1(C(=O)O)C1CCC2C1 (stereo not drawn) | > 100 µM (inactive) | > 100 µM (inactive) | > 100 µM (inactive) | > 100 µM (inactive) | > 100 µM (inactive) | > 100 µM (inactive) |  | 39.8 | > 100 µM (inactive) | > 100 µM (inactive) | 23.7 µM (inactive) | > 100 µM (inactive) | > 100 µM (inactive) | > 100 µM (inactive) | > 100 µM (inactive) | > 100 µM (inactive) | > 100 µM (inactive) | > 100 µM (inactive) |
| Oc1ccc(-c2n[nH]c(S)n2)cc1 | > 100 µM (inactive) | > 100 µM (inactive) | > 100 µM (inactive) | > 100 µM (inactive) | > 100 µM (inactive) | > 100 µM (inactive) | > 100 µM (inactive) | > 100 | > 100 µM (inactive) | > 100 µM (inactive) |  | > 100 µM (inactive) | > 100 µM (inactive) | > 100 µM (inactive) | > 100 µM (inactive) | > 100 µM (inactive) | > 100 µM (inactive) | > 100 µM (inactive) |
| Cc1cccc(N2C(=O)/C(=C/c3ccc(N(CCC#N)CCC#N)cc3C)N=C2c2cc([N+](=O)[O-])ccc2Cl)c1 | > 100 µM (inactive) | > 100 µM (inactive) | > 100 µM (inactive) | > 100 µM (inactive) | > 100 µM (inactive) | > 100 µM (inactive) | > 100 µM (inactive) | > 100 | > 100 µM (inactive) | > 100 µM (inactive) |  | > 100 µM (inactive) | > 100 µM (inactive) | > 100 µM (inactive) | > 100 µM (inactive) | > 100 µM (inactive) | 45.5 µM (inactive) | > 100 µM (inactive) |
| Cc1ccc2[nH]c3c4c5ccccc5nc-4c[nH]c3c2c1 | 19.2 µM (inactive) | 16.3 µM (inactive) | 18.2 µM (inactive) |  | 18.9 µM (inactive) | 15 µM (inactive) | 16.9 µM (inactive) |  | 15.6 µM (inactive) | 16.7 µM (inactive) | 17.2 µM (inactive) | 18.1 µM (inactive) | 17.7 µM (inactive) | 10 µM (inactive) | 17 µM (inactive) | 19.1 µM (inactive) | 11.6 µM (inactive) | 16.7 µM (inactive) |
